# Source: patent US11541029B2, “High penetration compositions and their applications” (Techfields Pharma Co., Ltd., priority 2008, dated 2023)
# Assays:
# [1] = tested on: Human colon cancer cells (LS174J); assay: Human colon cancer xenograft in nude mice; conditions: for tumor Size at day 30: about 50 μl of 5% topically every 12 hours; for Weight of mice at day 30: in vivo
# Text: Human colon cancer cells (LS174J, 2-3 mm^3 of tumor tissue was used in each mouse) were subcutaneously xenografted into nude mice (BALB).
# [2] = tested on: type 2 diabetes rat models [SLAC/GK(Goto and Kakisaki)]; assay: Hypoglycemic effects of aspirin and its HPC in GK rats, once per day for 6 weeks; assay type: in vivo; conditions: for Blood Glucose Levels at day 1 / Blood Glucose Levels at day 42: no fasting, n = 5;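 for Blood Glucose Levels at day 42: blood glucose in mg/dL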
# Procedure: The blood glucose levels were measured three times every week (no fasting) from the third week to the sixth week.
# [3] = tested on: rats given sterilized E. coli suspension as a pyrogen; assay: Antipyretic activity of aspirin and its HPC (Study B); assay type: in vivo
# Procedure: […] Group A was the control group. The body temperature of rats was taken at 90 min. intervals before and after the administration of the test compounds.
# [4] = Distribution in organs of rats killed with CO2 (absence of general circulation); conditions: 5 hrs after 0.3 mmol/kg diethylaminoethyl acetylsalicylate HCl salt on back of killed rats;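 note: tissue concentration in nmol/g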
# Procedure: 0.3 mmol/kg of diethylaminoethyl acetylsalicylate HCl salt (10% in pure water) was applied to the back of rats (10 cm^2) which were killed with CO2. The rats were shaken for 5 hrs, then the HPCs and parent drugs in organs of rats were determined.
compound,measurement,setting,value
"CN(C)CCCC(=O)OC1=C(C(=O)Nc2nccs2)N(C)S(=O)(=O)c2ccccc21.Cl [P-52, N-(2-thiazoyl)-4-N,N-dimethylaminobutyryloxy-2-methyl-2H,1,2-benzothiazine-3-carboxamide 1,1-dioxide.HCl]",tumor Size at day 30,[1],720 ± 280 mm^3
same,Weight of mice at day 30,[1],23 ± 3
"CC(=O)Oc1ccccc1C(=O)O [aspirin, acetylsalicylic acid, reference compound]",Blood Glucose Levels at day 1,"[2]; 50 mg/kg, orally",213.7 ± 20.5 mg/dL
same,Blood Glucose Levels at day 42,"[2]; 50 mg/kg, orally",243.4 ± 26.7 mg/dL
same,Blood Glucose Levels at day 1,"[2]; 50 mg/kg, transdermally",216.6 ± 17.3 mg/dL
same,Blood Glucose Levels at day 42,"[2]; 50 mg/kg, transdermally",258.2 ± 17.4 mg/dL
same,Blood Glucose Levels at day 1,"[2]; 100 mg/kg, orally",211.3 ± 21.5 mg/dL
same,Blood Glucose Levels at day 42,"[2]; 100 mg/kg, orally",219.4 ± 19.9 mg/dL
same,Blood Glucose Levels at day 1,"[2]; 100 mg/kg, transdermally",217.4 ± 18.9 mg/dL
same,Blood Glucose Levels at day 42,"[2]; 100 mg/kg, transdermally",255.4 ± 24.6 mg/dL
same,Blood Glucose Levels at day 1,"[2]; 200 mg/kg, orally",213.5 ± 21.5 mg/dL
same,Blood Glucose Levels at day 42,"[2]; 200 mg/kg, orally",195.4 ± 23.4 mg/dL
same,Blood Glucose Levels at day 1,"[2]; 200 mg/kg, transdermally",216.4 ± 21.9 mg/dL
same,Blood Glucose Levels at day 42,"[2]; 200 mg/kg, transdermally",247.4 ± 27.8 mg/dL
same,Blood Glucose Levels at day 1,"[2]; 300 mg/kg, orally",215.6 ± 22.4 mg/dL
same,Blood Glucose Levels at day 42,"[2]; 300 mg/kg, orally",165.4 ± 22.1 mg/dL
same,anti-diabetic effect,[2]; transdermal administration,did not show any anti-diabetic effect
same,body temperature,"[3]; 20 mg/kg, orally, t = 0 min., in °C (unit assumed)",37.5 ± 0.2
same,body temperature,"[3]; 20 mg/kg, orally, t = 90 min., in °C (unit assumed)",37.7 ± 0.3
same,body temperature,"[3]; 20 mg/kg, orally, t = 180 min., in °C (unit assumed)",37.4 ± 0.3
same,body temperature,"[3]; 20 mg/kg, orally, t = 270 min., in °C (unit assumed)",37.4 ± 0.4
same,body temperature,"[3]; 50 mg/kg, orally, t = 0 min., in °C (unit assumed)",37.5 ± 0.3
same,body temperature,"[3]; 50 mg/kg, orally, t = 90 min., in °C (unit assumed)",37.7 ± 0.3
same,body temperature,"[3]; 50 mg/kg, orally, t = 180 min., in °C (unit assumed)",37.1 ± 0.3
same,body temperature,"[3]; 50 mg/kg, orally, t = 270 min., in °C (unit assumed)",37.0 ± 0.4
same,body temperature,"[3]; 100 mg/kg, orally, t = 0 min., in °C (unit assumed)",37.5 ± 0.2
same,body temperature,"[3]; 100 mg/kg, orally, t = 90 min., in °C (unit assumed)",37.3 ± 0.4
same,body temperature,"[3]; 100 mg/kg, orally, t = 180 min., in °C (unit assumed)",36.7 ± 0.3
same,body temperature,"[3]; 100 mg/kg, orally, t = 270 min., in °C (unit assumed)",36.8 ± 0.4
same,body temperature,"[3]; groups H/I, 50 mg/kg, transdermally, t = 0 min., in °C (unit assumed)",37.6 ± 0.3
same,body temperature,"[3]; groups H/I, 50 mg/kg, transdermally, t = 90 min., in °C (unit assumed)",37.9 ± 0.3
same,body temperature,"[3]; groups H/I, 50 mg/kg, transdermally, t = 180 min., in °C (unit assumed)",37.8 ± 0.4
same,body temperature,"[3]; groups H/I, 50 mg/kg, transdermally, t = 270 min., in °C (unit assumed)",37.7 ± 0.5
same,body temperature,"[3]; groups J/K, 20 mg/kg, transdermally, t = 0 min., in °C (unit assumed)",37.6 ± 0.3
same,body temperature,"[3]; groups J/K, 20 mg/kg, transdermally, t = 90 min., in °C (unit assumed)",37.8 ± 0.4
same,body temperature,"[3]; groups J/K, 20 mg/kg, transdermally, t = 180 min., in °C (unit assumed)",37.7 ± 0.4
same,body temperature,"[3]; groups J/K, 20 mg/kg, transdermally, t = 270 min., in °C (unit assumed)",38.0 ± 0.3
same,body temperature,"[3]; groups L/M, 20 mg/kg, transdermally, t = 0 min.",37.5 ± 0.3
same,body temperature,"[3]; groups L/M, 20 mg/kg, transdermally, t = 90 min., in °C (unit assumed)",37.6 ± 0.5
same,body temperature,"[3]; groups L/M, 20 mg/kg, transdermally, t = 180 min., in °C (unit assumed)",37.8 ± 0.3
same,body temperature,"[3]; groups L/M, 20 mg/kg, transdermally, t = 270 min., in °C (unit assumed)",37.9 ± 0.3
same,antipyretic activity,[3]; transdermal administration,did not show any antipyretic activity
same,concentration in Leg muscle,[4],6.7 ± 2.1 nmol/g
same,concentration in kidney,[4],3.5 ± 2.1 nmol/g
same,concentration in liver,[4],2.1 ± 1.0 nmol/g
same,concentration in pancreas,[4],4.1 ± 1.3 nmol/g
same,concentration in stomach,[4],4.7 ± 2.5 nmol/g
"CCN(CC)CCOC(=O)c1ccccc1Nc1cccc(C)c1C.Cl [P-46, diethylaminoethyl 2-[(2,3-dimethylphenyl)amino]benzoate.HCl]",tumor Size at day 30,[1],650 ± 250 mm^3
same,Weight of mice at day 30,[1],23 ± 3
"CCN(CC)CCOC(=O)c1ccccc1Nc1c(Cl)ccc(C)c1Cl.Cl [P-47, diethylaminoethyl 2-[(2,6-dichloro-3-methylphenyl)amino]benzoate.HCl]",tumor Size at day 30,[1],590 ± 350 mm^3
same,Weight of mice at day 30,[1],22 ± 2
"Cl.Nc1c(CC(=O)OCCN2CCOCC2)cccc1C(=O)c1ccccc1 [P-16, 2-(4-morpholinyl)ethyl 2-amino-3-benzoylbenzeneacetate.HCl]",tumor Size at day 30,[1],590 ± 350 mm^3
same,Weight of mice at day 30,[1],23 ± 2
